Earlier results, collected in patent publication US20070183984A1, “CALCIUM PHOSPHATE SALTS IN ORAL COMPOSITIONS SUITABLE AS A TOOTH REMINERALIZING AGENT” (WM. WRIGLEY JR. COMPANY, priority 2006, published 2007).

Columns and labels:
[1] = octanol/water partition coefficient
[2] = g in about 100 ml of water at about 20° C.

For `O=C(O)CCCCC(=O)O` [adipic acid], the “Log Pow” value [1] is listed as 0.08.

For `O=C(O)/C=C/C(=O)O` [fumaric acid], the solubility in water [2] is given as “about 0.6%”.

In the case of `O=C(O)CC(O)C(=O)O` (stereo not drawn) [malic acid], the solubility in water [2] is given as “about 55%” and the “Log Pow” value [1] is given as −1.26.

In the case of polyaspartic acid, the solubility in water [2] is listed as “about 5%”.

In the case of polyglutamic acid, the solubility in water [2] is given as “about 5%”.
